One series deals with T1, IGF1R (Homo sapiens, UniProt P08069).
T1 construct: made in house
Description: Inhibition of IGF1-induced signaling in intact MCF7 cells (western blot). In kind it is cell-based. The conditions noted are these: for Inhibition of IGF1R autophosphorylation and IGF1-induced signaling (IRS1 pTyr, Akt/PKB, MAPK/ERK): 4 h exposure, IGF1 stimulation. How it is done: (§1) Tyrosine autophosphorylation of the β-subunit of IGF1R as well as downstream signaling induced by IGF1R were assayed in breast cancer MCF7 cells. Tyrosine autophosphorylation of the EGFR and the EGFR signaling was assayed in prostate cancer PC3 cells. Tyrosine autophosphorylation of the PDGFR and its signaling was assayed in fibroblasts overexpres sing PDGFR. Tyro sine autophosphorylation of the IR and its signaling was assayed in fibroblasts overexpressing IR. Cells were seeded in 6-well plates (MCF7-250,000 cells/well, PC3-150,000 cells/well, fibroblasts-140,000 cells/well) and 24 hours later medium was replaced by serum-free medium (DMEM supplemented with 100 units/ml penicillin and 100 μg/ml streptomycin). Following 20 hours of serum-starvation medium was replaced with medium containing various concentrations of the inhibitors in 0.1% DMSO for additional 4 hours. Cells were then stimulated for 5 min with 50 ng/ml IGF-1 (MCF7 cells), 20 ng/ml EGF (PC3 cells), 50 ng/ml PDGF (fibroblasts overexpressing PDGFR) or 100 nM insulin (fibroblasts overexpressing IR), washed twice with PBS and lysed by boiling sample buffer (10% glycerol, 50 mM Tris-HCl, pH 6.8, 3% SDS, and 5%, β-mercaptoethanol). Equal amounts of protein per lane were separated by 8% SDS-PAGE and transferred to a nitrocellulose membrane (Sartorius AG). Phosphorylated proteins were immunoblotted with anti-phospho-IGF1R (phosphor-IGF1R), anti-phosphotyrosine-IRS1 (phospho-IRS1), anti-phospho(T308)Akt (phospho-PKB), anti-phospho-Erk (phospho-ERK), anti-phosphotyrosine 4G10&PY20 (pY-EGFR or pY-PDGFR), anti-phospho-Ser^636/639-IRS1 (pS^636/639-IRS1) and anti-phospho-STAT3 (phospho-STAT3) antibodies. Detection was performed with horseradish peroxidase-conjugated secondary antibody using the ECL system. Blots were then stripped of antibodies, blocked with TBST with 5% low fat milk and re-probed with antibodies detecting both the phosphorylated and the non-phosphorylated corresponding proteins e.g. IGF1Rβ, IRS1, PKB, ERK, IRβ, PDGFR and Stat3.
In general terms: Immunoblotting shows a protein as a band on a membrane.

In the next series the target is T2, EGFR (Homo sapiens, UniProt P00533).
T2 construct: endogenous in cells; host or cells: PC3
T2 sequence (P00533 25-1210): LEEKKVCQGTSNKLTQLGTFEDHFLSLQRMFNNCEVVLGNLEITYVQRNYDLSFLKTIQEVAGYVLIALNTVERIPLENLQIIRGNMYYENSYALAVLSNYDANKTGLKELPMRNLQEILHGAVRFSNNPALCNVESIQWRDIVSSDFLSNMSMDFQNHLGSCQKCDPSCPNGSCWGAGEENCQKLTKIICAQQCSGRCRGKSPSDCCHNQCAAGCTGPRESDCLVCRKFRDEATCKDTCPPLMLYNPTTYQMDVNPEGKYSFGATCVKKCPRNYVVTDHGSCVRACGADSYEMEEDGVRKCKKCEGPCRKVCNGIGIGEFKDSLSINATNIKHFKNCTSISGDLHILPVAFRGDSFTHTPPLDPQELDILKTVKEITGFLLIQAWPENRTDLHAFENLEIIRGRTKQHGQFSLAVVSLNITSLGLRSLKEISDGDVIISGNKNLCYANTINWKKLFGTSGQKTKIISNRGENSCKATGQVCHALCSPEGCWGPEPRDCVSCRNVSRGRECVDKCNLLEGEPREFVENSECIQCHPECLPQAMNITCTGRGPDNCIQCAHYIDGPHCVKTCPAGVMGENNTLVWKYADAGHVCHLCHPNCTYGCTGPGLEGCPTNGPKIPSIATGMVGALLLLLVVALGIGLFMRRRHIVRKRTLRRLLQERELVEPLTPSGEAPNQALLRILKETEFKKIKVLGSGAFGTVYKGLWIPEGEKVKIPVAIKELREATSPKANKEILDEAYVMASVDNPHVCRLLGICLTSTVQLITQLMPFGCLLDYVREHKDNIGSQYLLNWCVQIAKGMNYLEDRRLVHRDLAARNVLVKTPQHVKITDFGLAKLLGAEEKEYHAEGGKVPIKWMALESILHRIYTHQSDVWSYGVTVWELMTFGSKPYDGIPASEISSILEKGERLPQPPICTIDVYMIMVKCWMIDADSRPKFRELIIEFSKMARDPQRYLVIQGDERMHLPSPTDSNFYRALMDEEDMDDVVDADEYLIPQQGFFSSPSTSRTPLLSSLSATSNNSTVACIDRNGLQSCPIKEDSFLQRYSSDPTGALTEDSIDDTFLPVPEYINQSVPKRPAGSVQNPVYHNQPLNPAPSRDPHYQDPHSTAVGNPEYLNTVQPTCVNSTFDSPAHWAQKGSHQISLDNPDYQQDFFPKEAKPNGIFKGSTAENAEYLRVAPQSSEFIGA
Description: EGFR activation and EGF-induced signaling in PC3 cells. It is filed as cell-based. The conditions noted are these: EGF stimulation. The protocol:
as §1, with “Phosphorylated proteins were immunoblotted with anti-phospho-IGF1R (phosphor-IGF1R), anti-phosphotyrosine-IRS1 (phospho-IRS1), anti-phospho(T308)Akt (phospho-PKB), anti-phospho-Erk (phospho-ERK), anti-phosphotyrosine 4G10&PY20 (pY-EGFR or pY-PDGFR), anti-phospho-Ser^636/639-IRS1 (pS^636/639-IRS1) and anti-phospho-STAT3 (phospho-STAT3) antibodies. Detection was performed with horseradish peroxidase-conjugated secondary antibody using the ECL system. Blots were then stripped of antibodies, blocked with TBST with 5% low fat milk and re-probed with antibodies detecting both the phosphorylated and the non-phosphorylated corresponding proteins e.g. IGF1Rβ, IRS1, PKB, ERK, IRβ, PDGFR and Stat3.” left out

Another series concerns B16 tumors. Description: Melanoma B16 tumor growth. In kind it is in vivo, nude mice. Conditions: IP, 20 mg/kg, 1/day. How it is done:
(§2) Human hormone-refractory prostate cancer PC3 cells (ATCC, 1.5×10^6 cells per mouse) were injected subcutaneously into the right leg of Nude:Hsd mice (purchased from Harlan). Ten days later, when palpable tumors had developed, mice were divided into 3 groups with similar average tumor size. […] The mice treated with compound 7 group were daily injected with compound 7 dissolved in the below described vehicle, and the vehicle-treated group (veh) was daily injected by the vehicle alone. Vehicle included 4.4% DMSO, 1.2% Ethanol and 50% PEG400 in DDW; Groups were composed of 3 mice per group. Dose administered IP was 50 mg/Kg (4 ml/Kg) once a day for one month. The length (l) and the width (w) of the tumors were measured every day and the volumes of the tumors were calculated as follows: v=1w^2/2. Graphs present average volumes of the tumors versus time in days. The procedure was followed for the other described in-vivo studies with the following modifications:
The mouse B16 melanoma cells (1.5×10^6 cells per mouse) were injected subcutaneously into the right leg of male Nude:Hsd mice (purchased from Harlan). Inhibitors were injected IP daily at a dose of 20 mg/kg dissolved in 4.4% % DMSO, 1.2% EtOH, 33% PEG-400 in DDW at volume of 4 ml/kg.

A further series concerns YUMAC tumors. Description: Human melanoma YUMAC xenograft tumor growth. The conditions noted are these: IP, 20 mg/kg, 1/day. In kind it is in vivo, nude mice. How it is done:
as §2
The human YUMAC metastatic melanoma cells (2×10^6 cells per mouse), provided by Dr. Ruth Halaban (Yale University), were injected subcutaneously into the right leg of male Nude:Hsd mice (purchased from Harlan). Inhibitors were injected IP daily at a dose of 20 mg/kg dissolved in 8% EtOH, 2% Tween-80, 20% PEG-400 and 20% solutol in DDW at volume of 4 ml/kg.
On the technique in general: Xenograft models place foreign cells or tissue in a host animal.

Another series has as its system PDGFR. Description: PDGFR activation and signaling in fibroblasts overexpressing PDGFR. It is filed as cell-based. The conditions noted are these: fibroblasts over-expressing PDGFR, PDGF stimulation. The protocol: as §1, with “Phosphorylated proteins were immunoblotted with anti-phospho-IGF1R (phosphor-IGF1R), anti-phosphotyrosine-IRS1 (phospho-IRS1), anti-phospho(T308)Akt (phospho-PKB), anti-phospho-Erk (phospho-ERK), anti-phosphotyrosine 4G10&PY20 (pY-EGFR or pY-PDGFR), anti-phospho-Ser^636/639-IRS1 (pS^636/639-IRS1) and anti-phospho-STAT3 (phospho-STAT3) antibodies. Detection was performed with horseradish peroxidase-conjugated secondary antibody using the ECL system. Blots were then stripped of antibodies, blocked with TBST with 5% low fat milk and re-probed with antibodies detecting both the phosphorylated and the non-phosphorylated corresponding proteins e.g. IGF1Rβ, IRS1, PKB, ERK, IRβ, PDGFR and Stat3.” left out

The target of another series is T3, IR (Homo sapiens, UniProt P06213).
T3 construct: expressed in transfected cells; host or cells: NIH3T3 fibroblasts over expressing IR
T3 sequence (P06213 28-1382): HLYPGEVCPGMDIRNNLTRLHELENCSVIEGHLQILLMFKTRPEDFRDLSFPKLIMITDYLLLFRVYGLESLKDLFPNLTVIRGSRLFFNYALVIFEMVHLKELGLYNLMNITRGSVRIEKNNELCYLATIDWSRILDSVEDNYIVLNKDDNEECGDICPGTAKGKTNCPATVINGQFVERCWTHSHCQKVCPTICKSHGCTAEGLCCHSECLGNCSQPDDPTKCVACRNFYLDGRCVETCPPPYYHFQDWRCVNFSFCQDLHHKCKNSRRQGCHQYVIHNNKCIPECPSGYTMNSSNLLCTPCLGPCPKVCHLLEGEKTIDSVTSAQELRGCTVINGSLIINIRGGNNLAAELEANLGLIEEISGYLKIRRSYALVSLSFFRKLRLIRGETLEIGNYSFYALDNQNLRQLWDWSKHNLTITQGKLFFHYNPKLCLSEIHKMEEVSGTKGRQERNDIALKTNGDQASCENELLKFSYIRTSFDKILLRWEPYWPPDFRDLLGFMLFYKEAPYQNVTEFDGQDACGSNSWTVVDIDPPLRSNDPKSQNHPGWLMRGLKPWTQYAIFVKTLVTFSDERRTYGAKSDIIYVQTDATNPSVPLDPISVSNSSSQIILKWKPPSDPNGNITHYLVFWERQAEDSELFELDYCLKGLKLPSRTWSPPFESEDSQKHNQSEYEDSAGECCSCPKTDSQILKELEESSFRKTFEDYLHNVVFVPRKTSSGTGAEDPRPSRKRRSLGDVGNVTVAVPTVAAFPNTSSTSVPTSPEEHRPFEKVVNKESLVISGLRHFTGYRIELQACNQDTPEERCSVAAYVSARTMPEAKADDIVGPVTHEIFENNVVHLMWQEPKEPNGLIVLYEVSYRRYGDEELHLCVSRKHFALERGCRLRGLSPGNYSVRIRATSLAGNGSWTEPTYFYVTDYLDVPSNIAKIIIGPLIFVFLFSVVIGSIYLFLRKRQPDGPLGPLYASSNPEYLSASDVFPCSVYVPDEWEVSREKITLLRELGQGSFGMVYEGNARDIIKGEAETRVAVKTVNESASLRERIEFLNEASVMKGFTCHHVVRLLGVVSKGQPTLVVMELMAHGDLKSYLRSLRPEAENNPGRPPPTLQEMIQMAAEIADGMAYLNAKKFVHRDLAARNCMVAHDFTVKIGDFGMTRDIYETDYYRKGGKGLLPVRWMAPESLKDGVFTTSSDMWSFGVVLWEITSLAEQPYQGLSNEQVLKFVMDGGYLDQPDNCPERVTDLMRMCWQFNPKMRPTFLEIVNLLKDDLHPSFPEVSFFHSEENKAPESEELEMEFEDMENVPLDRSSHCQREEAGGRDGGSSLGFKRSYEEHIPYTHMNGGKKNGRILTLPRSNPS
Description: Insulin receptor activation and signaling in fibroblasts overexpressing IR. It is filed as cell-based. The conditions noted are these: fibroblasts over-expressing IR, insulin stimulation. The protocol: as §1, with “Phosphorylated proteins were immunoblotted with anti-phospho-IGF1R (phosphor-IGF1R), anti-phosphotyrosine-IRS1 (phospho-IRS1), anti-phospho(T308)Akt (phospho-PKB), anti-phospho-Erk (phospho-ERK), anti-phosphotyrosine 4G10&PY20 (pY-EGFR or pY-PDGFR), anti-phospho-Ser^636/639-IRS1 (pS^636/639-IRS1) and anti-phospho-STAT3 (phospho-STAT3) antibodies. Detection was performed with horseradish peroxidase-conjugated secondary antibody using the ECL system. Blots were then stripped of antibodies, blocked with TBST with 5% low fat milk and re-probed with antibodies detecting both the phosphorylated and the non-phosphorylated corresponding proteins e.g. IGF1Rβ, IRS1, PKB, ERK, IRβ, PDGFR and Stat3.” left out

The next series relates to MEK. Description: MEK activity in cells (ERK phosphorylation). It is filed as cell-based. The protocol: as §1, with “Phosphorylated proteins were immunoblotted with anti-phospho-IGF1R (phosphor-IGF1R), anti-phosphotyrosine-IRS1 (phospho-IRS1), anti-phospho(T308)Akt (phospho-PKB), anti-phospho-Erk (phospho-ERK), anti-phosphotyrosine 4G10&PY20 (pY-EGFR or pY-PDGFR), anti-phospho-Ser^636/639-IRS1 (pS^636/639-IRS1) and anti-phospho-STAT3 (phospho-STAT3) antibodies. Detection was performed with horseradish peroxidase-conjugated secondary antibody using the ECL system. Blots were then stripped of antibodies, blocked with TBST with 5% low fat milk and re-probed with antibodies detecting both the phosphorylated and the non-phosphorylated corresponding proteins e.g. IGF1Rβ, IRS1, PKB, ERK, IRβ, PDGFR and Stat3.” left out

The next series has as its target T4, PDK (Homo sapiens, UniProt O15530).
T4 construct: endogenous in cells
Description: PDK activity in cells (PKB Thr308 phosphorylation). It is filed as cell-based. The protocol: as §1, with “Phosphorylated proteins were immunoblotted with anti-phospho-IGF1R (phosphor-IGF1R), anti-phosphotyrosine-IRS1 (phospho-IRS1), anti-phospho(T308)Akt (phospho-PKB), anti-phospho-Erk (phospho-ERK), anti-phosphotyrosine 4G10&PY20 (pY-EGFR or pY-PDGFR), anti-phospho-Ser^636/639-IRS1 (pS^636/639-IRS1) and anti-phospho-STAT3 (phospho-STAT3) antibodies. Detection was performed with horseradish peroxidase-conjugated secondary antibody using the ECL system. Blots were then stripped of antibodies, blocked with TBST with 5% low fat milk and re-probed with antibodies detecting both the phosphorylated and the non-phosphorylated corresponding proteins e.g. IGF1Rβ, IRS1, PKB, ERK, IRβ, PDGFR and Stat3.” left out

The test system of the next series is primary keratinocytes. Description: In-vitro inhibition of keratinocyte growth. It is filed as cell-based. The conditions noted are these: growth factor enriched medium. The protocol:
Primary keratinocytes were seeded in 96-well plates in growth factor enriched medium. After 48 hours medium was refreshed and compound 7 was added at the indicated concentrations (0 is 0.1% DMSO which was kept constant in all wells). Every 24 hours medium and compound 7 were refreshed, and 5 days following seeding cells were fixed with 0.5% gluteraldehide for 10 min, stained with Methylene-Blue. Access stain was washed away and the bound stain was extracted by 0.1N HCl. Absorbance at 620 nm wavelength was read in ELISA reader.

The subject of the next series is PC3 tumors. Description: Hormone-refractory prostate cancer PC3 xenograft tumor growth. In kind it is in vivo, nude mice. How it is done: as §2, with “modifications: […]” for “modifications:”
The nature of series [1]: Body weight of treated nude mice. Conditions: IP, 1/day, 50 mg/kg, over 4 weeks. It is filed as in vivo. How it is done: as §2, with “modifications: […]” for “modifications:”

T1 sequence (P08069 31-1367, species assumed): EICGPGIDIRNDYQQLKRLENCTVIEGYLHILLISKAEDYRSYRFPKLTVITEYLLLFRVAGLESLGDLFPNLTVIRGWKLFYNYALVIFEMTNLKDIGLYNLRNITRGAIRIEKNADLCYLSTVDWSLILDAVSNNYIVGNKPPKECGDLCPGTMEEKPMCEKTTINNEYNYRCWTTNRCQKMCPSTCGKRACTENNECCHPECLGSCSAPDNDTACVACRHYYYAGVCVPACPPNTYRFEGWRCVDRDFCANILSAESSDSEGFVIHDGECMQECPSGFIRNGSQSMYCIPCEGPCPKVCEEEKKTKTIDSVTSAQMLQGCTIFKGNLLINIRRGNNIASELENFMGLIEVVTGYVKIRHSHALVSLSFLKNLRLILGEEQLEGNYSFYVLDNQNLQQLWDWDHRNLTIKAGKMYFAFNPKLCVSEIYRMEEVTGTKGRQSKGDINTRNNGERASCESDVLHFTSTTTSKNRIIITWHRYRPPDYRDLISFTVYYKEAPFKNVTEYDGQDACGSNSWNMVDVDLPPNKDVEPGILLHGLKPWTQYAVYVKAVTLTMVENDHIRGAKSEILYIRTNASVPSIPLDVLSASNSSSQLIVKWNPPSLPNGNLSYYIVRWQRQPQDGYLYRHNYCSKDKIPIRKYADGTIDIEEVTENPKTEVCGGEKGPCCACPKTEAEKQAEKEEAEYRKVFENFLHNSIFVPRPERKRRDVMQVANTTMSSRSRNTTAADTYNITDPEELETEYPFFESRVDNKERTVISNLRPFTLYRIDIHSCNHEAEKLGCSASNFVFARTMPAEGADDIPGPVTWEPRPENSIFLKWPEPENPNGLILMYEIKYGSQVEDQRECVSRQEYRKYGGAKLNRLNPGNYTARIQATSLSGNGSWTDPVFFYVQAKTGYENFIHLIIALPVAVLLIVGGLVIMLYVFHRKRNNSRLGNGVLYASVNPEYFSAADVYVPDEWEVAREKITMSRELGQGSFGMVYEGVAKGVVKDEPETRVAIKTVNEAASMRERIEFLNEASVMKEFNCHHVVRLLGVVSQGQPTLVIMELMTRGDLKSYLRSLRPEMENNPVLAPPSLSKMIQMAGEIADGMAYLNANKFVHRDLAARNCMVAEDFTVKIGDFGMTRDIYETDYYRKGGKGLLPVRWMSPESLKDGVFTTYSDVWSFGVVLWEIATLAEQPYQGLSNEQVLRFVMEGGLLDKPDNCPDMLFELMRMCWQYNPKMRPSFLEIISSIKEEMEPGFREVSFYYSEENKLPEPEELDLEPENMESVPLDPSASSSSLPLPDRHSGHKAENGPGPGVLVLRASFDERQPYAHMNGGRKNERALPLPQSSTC
T4 sequence (O15530 whole entry): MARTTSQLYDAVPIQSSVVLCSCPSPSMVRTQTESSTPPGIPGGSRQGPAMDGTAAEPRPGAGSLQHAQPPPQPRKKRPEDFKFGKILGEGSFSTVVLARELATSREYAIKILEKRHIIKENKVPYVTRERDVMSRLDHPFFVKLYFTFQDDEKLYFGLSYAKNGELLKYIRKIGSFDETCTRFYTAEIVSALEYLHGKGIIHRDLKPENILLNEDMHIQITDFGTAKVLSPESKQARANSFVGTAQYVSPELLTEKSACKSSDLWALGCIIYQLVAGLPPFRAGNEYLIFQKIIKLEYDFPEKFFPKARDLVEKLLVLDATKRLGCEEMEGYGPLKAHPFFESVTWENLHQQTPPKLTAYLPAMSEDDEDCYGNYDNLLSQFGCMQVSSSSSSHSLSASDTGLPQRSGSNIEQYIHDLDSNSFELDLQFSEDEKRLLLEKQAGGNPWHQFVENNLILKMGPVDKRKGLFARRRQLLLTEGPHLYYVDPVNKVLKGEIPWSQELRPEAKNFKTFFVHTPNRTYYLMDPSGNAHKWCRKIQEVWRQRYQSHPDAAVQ

Regarding `N#C/C(=C\c1cc(O)c(O)c(Br)c1)C(=S)NCc1cc(O)c(O)c(Br)c1` [Compound 6], the “Inhibition of IGF1R autophosphorylation and IGF1-induced signaling (IRS1 pTyr, Akt/PKB, MAPK/ERK)” value on IGF1R is “inhibited the autophosphorylation of IGF1R”. The “Inhibition of EGFR and EGF-induced signaling in intact cells” value on EGFR is reported as “inhibited also EGFR”. Besides, the “Growth inhibition of melanoma B16 tumors” value with B16 tumors is listed as “significant inhibitory effect”.
For `N#C/C(=C\c1cc(O)c(O)c(I)c1)C(=S)NCc1cc(O)c(O)c(O)c1` [Compound 8], in the series on YUMAC tumors, the “Growth inhibition of human melanoma YUMAC tumors” value is reported as “inhibition”.
In the case of `N#C/C(=C\c1cc(O)c(O)c(Br)c1)C(=S)NCc1cc(O)c(O)c(O)c1` [Compound 7], the “Inhibition of IGF1R autophosphorylation and IGF1-induced signaling (IRS1 pTyr, Akt/PKB, MAPK/ERK)” value at IGF1R was “dramatically inhibited”. Also, the values for the IC50 on IGF1R (read-out: IC50 in inhibition of the Akt/PKB pathway downstream IGF1R) and with primary keratinocytes were 1000 to 2000 nM and 2300 nM, respectively. Moreover, the “Inhibition of EGFR and EGF-induced signaling in intact cells” value at EGFR is reported as “inhibits”. Moreover, in the series with PDGFR, the “Inhibition of PDGFR in intact cells” value is recorded as “inhibits”. Moreover, at IR, the “Inhibition of IR in intact cells” value is “inhibits”. For the same molecule, in the series with MEK, the “Inhibition of MEK (phosphorylation of ERK)” value is “not inhibited”. The “Inhibition of PDK (phosphorylation of PKB Thr308)” value at PDK is “not inhibited”. Moreover, the “Growth inhibition of HRPC PC3 tumors” value in the series with PC3 tumors (IP, 1/day, 50 mg/kg, one month, vs vehicle treated and untreated) was found to be 82%. The “Efficacy on HRPC model by intratumoral administration” value with PC3 tumors (intratumoral administration) was “efficient”. Moreover, the “Effect on body weight of the mice” value in series [1] is recorded as “no significant effect”. Besides, the “Growth inhibition of melanoma B16 tumors” value with B16 tumors is given as “significant inhibitory effect”.

The values are drawn from patent US8058309B2, “Protein kinase modulators and therapeutic uses thereof” (Novotyr Therapeutics Ltd., priority 2006, dated 2011).
